Experiment [1] relates to TNF alpha release from human PBMCs. Description: Inhibition of TNF alpha release from human PBMCs. The experiment is classed as cell-based. Particulars: PBMC, LPS 1 μg/ml, 18 hours, AlphaLISA. On the procedure:
PBMC were isolated from fresh buffy coats by density centrifugation using lymphoprep (Medinor AB, cat no 1019818) tubes. Isolated PBMCs were washed in assay medium (RPMI1640 with 25 mM HEPES, 1% pen/strep, 200 mM L glutamine and 10% Foetal calf serum). Surplus PBMCs were frozen in medium containing extra 10% foetal calf serum and 5% DMSO. On the assay day, fresh cells or cryopreserved cells after thawing were washed in serum free medium (RPMI1640 with 25 mM HEPES, 1% pen/strep, 200 mM L glutamine and 0.5% human serum albumin) and counted, in order to determine the fraction of living cells (generally >95%).
Test compounds were diluted in DMSO over seven orders of magnitude, further diluted in serum-free medium and distributed into wells of 384 well tissue culture plates. LPS was added to a final concentration of 1 μg/ml to the cells. Immediately thereafter titrated test compounds were added and incubated for 18 hours at 37° C.
The level of TNF-a in the culture supernatant was quantitated by AlphaLISA (Perkin Elmer). 2-(3,5-dichloro-4-pyridinyl)-1-(7-methoxyspiro[1,3-benzodioxole-2,1′-cyclopentan]-4-yl)-ethanone (CAS 185406-34-2) at 100×IC50 was used to define the assay window.
Data were processed by sigmoidal curve fitting. EC50 and Emax were determined from the curve fits.
On the technique in general: Alpha assays give light when donor and acceptor beads are brought close together.

Experiment [2] concerns the target T1, glucocorticoid receptor (GR), recombinant full-length receptor protein (Homo sapiens, UniProt P04150).
T1 construct: 4 nM recombinant, full-length receptor protein was incubated with increasing concentrations of GR ligand; purchased Life Technologies A-15897
T1 sequence (P04150 1-777): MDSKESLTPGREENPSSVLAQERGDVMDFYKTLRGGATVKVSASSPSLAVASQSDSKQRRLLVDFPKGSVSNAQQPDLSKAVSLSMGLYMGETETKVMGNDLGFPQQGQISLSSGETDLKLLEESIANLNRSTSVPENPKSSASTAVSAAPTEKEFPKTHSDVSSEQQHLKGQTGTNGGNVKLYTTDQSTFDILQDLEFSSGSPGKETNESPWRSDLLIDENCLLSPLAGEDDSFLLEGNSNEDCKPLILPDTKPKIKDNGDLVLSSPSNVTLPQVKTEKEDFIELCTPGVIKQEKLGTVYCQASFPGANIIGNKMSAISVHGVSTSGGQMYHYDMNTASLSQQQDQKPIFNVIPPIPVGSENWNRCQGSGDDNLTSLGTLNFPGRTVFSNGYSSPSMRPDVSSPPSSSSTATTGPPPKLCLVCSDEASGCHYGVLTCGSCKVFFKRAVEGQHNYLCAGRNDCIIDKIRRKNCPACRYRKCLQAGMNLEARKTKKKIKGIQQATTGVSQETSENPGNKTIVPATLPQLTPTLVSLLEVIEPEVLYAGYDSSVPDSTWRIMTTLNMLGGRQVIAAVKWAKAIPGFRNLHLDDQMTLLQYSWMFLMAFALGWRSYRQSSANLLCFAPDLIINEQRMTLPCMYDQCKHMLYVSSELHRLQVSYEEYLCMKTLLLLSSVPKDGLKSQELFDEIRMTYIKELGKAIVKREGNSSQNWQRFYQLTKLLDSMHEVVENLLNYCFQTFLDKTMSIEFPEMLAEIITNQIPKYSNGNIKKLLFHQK
Nature of the experiment: Glucocorticoid receptor binding assay (fluorescence polarization kit). Particulars: 4 nM receptor, 2.5 nM Fluormone GS1 tracer, 2h room temperature, read-out: GR binding ABS IC50. On the procedure:
Test compounds were diluted in DMSO over seven orders of magnitude, further diluted in assay buffer and distributed into 384-well plates. The sensitivity limit of this assay was 2-4 nM.
Data were processed by sigmoidal curve fitting.
Absolute (Abs) IC50 and Emax were determined from the curve fits.
(In general: Polarisation of emitted light reports the rotation of a fluorescent probe.)

The structures appear in SMILES notation.

The compound `C[C@H](NC(=O)C1CCCO1)[C@H](Oc1ccc(C(=O)O[C@H]2CCCN(C(=O)C3COC(=O)C3)C2)cc1)c1ccc(C2CC2)cc1` (stereo in doubt) [Compound 79, [(3S)-1-[(3R)-5-oxotetrahydrofuran-3-carbonyl]-3-piperidyl] 4-[(1R,2S)-1-(4-cyclopropylphenyl)-2-[[(2R)-tetrahydrofuran-2-carbonyl]amino]propoxy]benzoate] showed an EC50 in experiment [1] of less than 100 nM. Besides, in experiment [2], the IC50 was less than 100 nM.
With `C[C@H](NC(=O)CO)[C@H](Oc1ccc(C(=O)N[C@H]2CCCN(C(=O)[C@H]3COC(=O)C3)C2)nc1)c1ccc(C2CC2)cc1` [Compound 21, 5-[(1R,2S)-1-(4-cyclopropylphenyl)-2-[(2-hydroxyacetyl)amino]propoxy]-N-[(3S)-1-[(3R)-5-oxotetrahydrofuran-3-carbonyl]-3-piperidyl]pyridine-2-carboxamide], the EC50 in experiment [1] is less than 100 nM. For the same compound, the IC50 in experiment [2] is less than 100 nM.
Take `C[C@H](NC(=O)c1cncs1)[C@H](Oc1ccc(C(=O)O[C@H]2CCCN(C(=O)[C@H]3COC(=O)C3)C2)cc1)c1ccc(C2CC2)cc1` [Compound 27, [(3S)-1-[(3R)-5-oxotetrahydrofuran-3-carbonyl]-3-piperidyl] 4-[(1R,2S)-1-(4-cyclopropylphenyl)-2-(thiazole-5-carbonylamino)propoxy]benzoate]: the EC50 in experiment [1] was less than 100 nM. Also, the IC50 in experiment [2] was less than 100 nM.
As to `Cc1ccc([C@@H](Oc2ccc(C(=O)N[C@@H]3CCCN(C(=O)[C@@H]4COC(=O)C4)C3)nc2)[C@H](C)NC(=O)C(F)(F)F)cc1` [Compound 60, N-[(3R)-1-[(3S)-5-oxotetrahydrofuran-3-carbonyl]-3-piperidyl]-5-[(1R,2S)-1-(p-tolyl)-2-[(2,2,2-trifluoroacetyl)amino]propoxy]pyridine-2-carboxamide], the EC50 in experiment [1] is less than 100 nM.
Still for that read-out and setting: as for `Cc1ccc([C@@H](Oc2ccc(C(=O)N[C@@H]3CCCN(C(=O)[C@@H]4CCC(=O)O4)C3)nc2)[C@H](C)NC(=O)C(F)(F)F)cc1` [Compound 61, N-[(3R)-1-[(2S)-5-oxotetrahydrofuran-2-carbonyl]-3-piperidyl]-5-[(1R,2S)-1-(p-tolyl)-2-[(2,2,2-trifluoroacetyl)amino]propoxy]pyridine-2-carboxamide], the figure is 100 to 300 nM; as for `Cc1ccc([C@@H](Oc2ccc(C(=O)N[C@@H]3CCCN(C(=O)[C@H]4CCC(=O)O4)C3)nc2)[C@H](C)NC(=O)C(F)(F)F)cc1` [Compound 62, N-[(3R)-1-[(2R)-5-oxotetrahydrofuran-2-carbonyl]-3-piperidyl]-5-[(1R,2S)-1-(p-tolyl)-2-[(2,2,2-trifluoroacetyl)amino]propoxy]pyridine-2-carboxamide], less than 100 nM; as for `Cc1ccc([C@@H](Oc2ccc(C(=O)N[C@H]3CCCN(C(=O)[C@@H]4COC(=O)C4)C3)nc2)[C@H](C)NC(=O)C(F)(F)F)cc1` [Compound 63, N-[(3S)-1-[(3S)-5-oxotetrahydrofuran-3-carbonyl]-3-piperidyl]-5-[(1R,2S)-1-(p-tolyl)-2-[(2,2,2-trifluoroacetyl)amino]propoxy]pyridine-2-carboxamide], less than 100 nM.
Same read-out and setting: in the case of `Cc1ccc([C@@H](Oc2ccc(C(=O)N[C@H]3CCCN(C(=O)[C@@H]4CCC(=O)O4)C3)nc2)[C@H](C)NC(=O)C(F)(F)F)cc1` [Compound 64, N-[(3S)-1-[(2S)-5-oxotetrahydrofuran-2-carbonyl]-3-piperidyl]-5-[(1R,2S)-1-(p-tolyl)-2-[(2,2,2-trifluoroacetyl)amino]propoxy]pyridine-2-carboxamide] it was less than 100 nM.
`Cc1ccc([C@@H](Oc2ccc(C(=O)N[C@@H]3CCN(C(=O)[C@H]4COC(=O)C4)C3)nc2)[C@H](C)NC(=O)C(F)(F)F)cc1` [Compound 65, N-[(3R)-1-[(3R)-5-oxotetrahydrofuran-3-carbonyl]pyrrolidin-3-yl]-5-[(1R,2S)-1-(p-tolyl)-2-[(2,2,2-trifluoroacetyl)amino]propoxy]pyridine-2-carboxamide]: in experiment [1], the EC50 was less than 100 nM. In addition, the IC50 in experiment [2] was in the range of 100 to 300 nM.
The matching figures for `C[C@H](NC(=O)C(F)(F)F)[C@H](Oc1ccc(C(=O)N[C@H]2CCCN(C(=O)[C@H]3COC(=O)C3)C2)nc1)c1ccc(Br)cc1` [Compound 67, 5-[(1R,2S)-1-(4-bromophenyl)-2-[(2,2,2-trifluoroacetyl)amino]propoxy]-N-[(3S)-1-[(3R)-5-oxotetrahydrofuran-3-carbonyl]-3-piperidyl]pyridine-2-carboxamide]: less than 100 nM and less than 100 nM.
The matching figures for `C[C@H](NC(=O)C(F)(F)F)[C@H](Oc1ccc(C(=O)N[C@H]2CCCN(C(=O)[C@H]3COC(=O)C3)C2)nc1)c1ccc(-c2ccccc2)cc1` [Compound 68, N-[(3S)-1-[(3R)-5-oxotetrahydrofuran-3-carbonyl]-3-piperidyl]-5-[(1R,2S)-1-(4-phenylphenyl)-2-[(2,2,2-trifluoroacetyl)amino]propoxy]pyridine-2-carboxamide]: less than 100 nM and less than 100 nM.
With `Cc1ccc([C@@H](Oc2ccc(C(=O)N[C@H]3CCCN(C(=O)[C@H]4COC(=O)C4)C3)cc2)[C@H](C)NC(=O)C(F)(F)F)cc1` [Compound 69, N-[(3S)-1-[(3R)-5-oxotetrahydrofuran-3-carbonyl]-3-piperidyl]-4-[(1R,2S)-1-(p-tolyl)-2-[(2,2,2-trifluoroacetyl)amino]propoxy]benzamide], the EC50 in experiment [1] is less than 100 nM. For the same compound, the IC50 in experiment [2] was less than 100 nM.
In the case of `Cc1ccc([C@@H](Oc2ccc(C(=O)O[C@H]3CCCN(C(=O)[C@H]4COC(=O)C4)C3)cc2)[C@H](C)NC(=O)C(F)(F)F)cc1` [Compound 70, [(3S)-1-[(3R)-5-oxotetrahydrofuran-3-carbonyl]-3-piperidyl] 4-[(1R,2S)-1-(p-tolyl)-2-[(2,2,2-trifluoroacetyl)amino]propoxy]benzoate], in experiment [1], the EC50 is less than 100 nM.
For the compound `Cc1ccc([C@@H](Oc2ccc(C(=O)N[C@H]3CCCN(C(=O)O[C@H]4CCOC4=O)C3)nc2)[C@H](C)NC(=O)C(F)(F)F)cc1` [Compound 73, [(3S)-2-oxotetrahydrofuran-3-yl] (3S)-3-[[5-[(1R,2S)-1-(p-tolyl)-2-[(2,2,2-trifluoroacetyl)amino]propoxy]pyridine-2-carbonyl]amino]piperidine-1-carboxylate], the IC50 in experiment [2] is less than 100 nM.
For the compound `Cc1ccc([C@H](Oc2ccc(C(=O)N[C@H]3CCCN(C(=O)[C@@H]4COC(=O)C4)C3)nc2)[C@H](C)NC(=O)C(F)(F)F)cc1` [Compound 80, N-[(3S)-1-[(3S)-5-oxotetrahydrofuran-3-carbonyl]-3-piperidyl]-5-[(1S,2S)-1-(p-tolyl)-2-[(2,2,2-trifluoroacetyl)amino]propoxy]pyridine-2-carboxamide], the EC50 in experiment [1] is less than 100 nM.
On the same count and under the same terms, as for `Cc1ccc([C@H](Oc2ccc(C(=O)N[C@H]3CCCN(C(=O)[C@H]4COC(=O)C4)C3)nc2)[C@H](C)NC(=O)C(F)(F)F)cc1` [Compound 81, N-[(3S)-1-[(3R)-5-oxotetrahydrofuran-3-carbonyl]-3-piperidyl]-5-[(1S,2S)-1-(p-tolyl)-2-[(2,2,2-trifluoroacetyl)amino]propoxy]pyridine-2-carboxamide], the figure is less than 100 nM; as for `C[C@@H]1C[C@H]2[C@@H]3CCC4=CC(=O)C=C[C@]4(C)[C@@]3(F)[C@@H](O)C[C@]2(C)[C@@]1(O)C(=O)CO` [Dexamethasone, reference compound], less than 100 nM.

Broadly, the EC50 is the concentration giving half of the maximal effect. A lower EC50 goes with greater potency. As a reminder, the IC50 is the midpoint of a concentration-inhibition curve.

For the origin of these results see US10494363B2, “Non-steroidal glucocorticoid receptor modulators for local drug delivery” (LEO PHARMA A/S, priority 2015, dated 2019).
